# Patent US7767659B2, “Synthesis of naturally occurring ecteinascidins and related compounds” (Pharma Mar, S.A., priority 2002, dated 2010)
# Where two headings read alike, the source gives them in different places.
# Key:
# [1] = test system: DU-145; experiment: Inhibition of cells growth by colorimetric assay (SRB); settings: Homo sapiens, DU-145, 48 h
# Method in brief: (§1)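 Colorimetric SRB read (490 nm) on triplicate wells after 48 h at 37 °C, 5% CO2. Dose range 10 to 10^−8 μg/ml; 5×10^3 cells/well pre-attached 18 h.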
# [2] = test system: SK-BR-3; experiment: as above; settings: Homo sapiens, SK-BR-3, 48 h; for GI50: read-out: SK-BR3 GI50; for CC50: read-out: SK-BR3 LC50; for IC (TGI): read-out: SK-BR3 TGI
# Method in brief: as §1
# [3] = test system: LoVo-Dox; experiment: as above; settings: Homo sapiens, 48 h; for GI50: read-out: LOVO-DOX GI50; for CC50: read-out: LOVO-DOX LC50; for IC (TGI): read-out: LOVO-DOX TGI
# Method in brief: as §1
# [4] = test system: HeLa-APL; experiment: as above; settings: Homo sapiens, 48 h; for GI50: read-out: HELA-APL GI50; for CC50: read-out: HELA-APL LC50; for IC (TGI): read-out: HELA-APL TGI
# Method in brief: as §1
# [5] = test system: LNCaP; experiment: as above; settings: Homo sapiens, LNCaP, 48 h
# Method in brief: as §1
# [6] = test system: IGROV-ET; experiment: as above; settings: Homo sapiens, 48 h; for GI50: read-out: IGROV-ET GI50; for CC50: read-out: IGROV-ET LC50; for IC (TGI): read-out: IGROV-ET TGI
# Method in brief: as §1
# [7] = test system: K-562; experiment: as above; settings: Homo sapiens, K562, 48 h; for GI50: read-out: K562 GI50; for CC50: read-out: K562 LC50; for IC (TGI): read-out: K562 TGI
# Method in brief: as §1
# [8] = test system: IGROV-1; experiment: as above; settings: Homo sapiens, IGROV-1, 48 h; for GI50: read-out: IGROV GI50; for CC50: read-out: IGROV LC50; for IC (TGI): read-out: IGROV TGI
# Method in brief: as §1
# [9] = test system: HeLa; experiment: as above; settings: Homo sapiens, HeLa, 48 h; for GI50: read-out: HELA GI50; for CC50: read-out: HELA LC50; for IC (TGI): read-out: HELA TGI
# Method in brief: as §1
# [10] = test system: PANC-1; experiment: as above; settings: Homo sapiens, PANC-1, 48 h; for GI50: read-out: PANC-1 GI50; for CC50: read-out: PANC-1 LC50; for IC (TGI): read-out: PANC-1 TGI
# Method in brief: as §1
# [11] = test system: SK-MEL-28; experiment: as above; settings: Homo sapiens, SK-MEL-28, 48 h
# Method in brief: as §1
# [12] = test system: A-549; experiment: cells; settings: Homo sapiens, A549, 48 h
# Method in brief: as §1
# [13] = test system: LoVo; experiment: cells; settings: Homo sapiens, LoVo, 48 h; for GI50: read-out: LOVO GI50; for CC50: read-out: LOVO LC50; for IC (TGI): read-out: LOVO TGI
# Method in brief: as §1
# [14] = test system: HT-29; experiment: cells; settings: Homo sapiens, HT-29, 48 h
# Method in brief: as §1
compound,measurement,setting,value
C=CCN1[C@@H]2c3c(cc(C)c(OC)c3O)C[C@H]1[C@H](C#N)N1C2[C@@H]2SC[C@]3(NCCc4cc(OC(=O)OC(C)(C)C)c(OC)cc43)C(=O)OC[C@H]1c1c3c(c(C)c(OC(C)=O)c12)OCO3 (some centres unmarked) [compound 44],GI50,[1]; read-out: DU145 GI50,23.4 nM
same,CC50,[1]; read-out: DU145 LC50,11100 nM
same,IC (TGI),[1]; read-out: DU145 TGI,71.9 nM
same,GI50,[2],3.27 nM
same,CC50,[2],76.1 nM
same,IC (TGI),[2],11.9 nM
same,GI50,[3],297 nM
same,CC50,[3],11100 nM
same,IC (TGI),[3],919 nM
same,GI50,[4],25 nM
same,CC50,[4],352 nM
same,IC (TGI),[4],59.6 nM
same,GI50,[5]; read-out: LNCAP GI50,4.53 nM
same,CC50,[5]; read-out: LNCAP LC50,48 nM
same,IC (TGI),[5]; read-out: LNCAP TGI,20.4 nM
same,GI50,[6],49.2 nM
same,CC50,[6],11100 nM
same,IC (TGI),[6],443 nM
same,GI50,[7],7.97 nM
same,CC50,[7],11100 nM
same,IC (TGI),[7],77.9 nM
same,GI50,[8],32.6 nM
same,CC50,[8],11100 nM
same,IC (TGI),[8],78 nM
same,GI50,[9],20.2 nM
same,CC50,[9],87.5 nM
same,IC (TGI),[9],42 nM
same,GI50,[10],75.2 nM
same,CC50,[10],11100 nM
same,IC (TGI),[10],344 nM
same,GI50,[11]; read-out: MEL-28 GI50,23.4 nM
same,CC50,[11]; read-out: MEL-28 LC50,90.1 nM
same,IC (TGI),[11]; read-out: MEL-28 TGI,45.9 nM
same,GI50,[12]; read-out: A549 GI50,27.4 nM
same,CC50,[12]; read-out: A549 LC50,470 nM
same,IC (TGI),[12]; read-out: A549 TGI,56.7 nM
same,GI50,[13],33.9 nM
same,CC50,[13],11100 nM
same,IC (TGI),[13],143 nM
same,GI50,[14]; read-out: HT29 GI50,38.8 nM
same,CC50,[14]; read-out: HT29 LC50,11100 nM
same,IC (TGI),[14]; read-out: HT29 TGI,1540 nM
COc1c(C)cc2c(c1OC(=O)/C=C/c1ccccc1)[C@H]1N[C@@H](C2)[C@H](C#N)N2C1[C@@H]1SCC(NC(=O)C(F)(F)F)C(=O)OC[C@H]2c2c3c(c(C)c(OC(C)=O)c21)OCO3 (some centres unmarked) [compound 34],GI50,[1]; read-out: GI50 DU145,51.1 nM
same,CC50,[1]; read-out: LC50 DU145,53.7 nM
same,IC (TGI),[1]; read-out: TGI DU145,98.7 nM
same,GI50,[2],12.7 nM
same,CC50,[2],626 nM
same,IC (TGI),[2],70.1 nM
same,GI50,[3],140 nM
same,CC50,[3],12000 nM
same,IC (TGI),[3],410 nM
same,GI50,[4],33.9 nM
same,CC50,[4],108 nM
same,IC (TGI),[4],60.5 nM
same,GI50,[5]; read-out: GI50 LNCAP,22 nM
same,CC50,[5]; read-out: LC50 LNCAP,147 nM
same,IC (TGI),[5]; read-out: TGI LNCAP,52.1 nM
same,GI50,[6],89.5 nM
same,CC50,[6],860 nM
same,IC (TGI),[6],262 nM
same,GI50,[7],16.2 nM
same,CC50,[7],146 nM
same,IC (TGI),[7],45 nM
same,GI50,[8],29.2 nM
same,CC50,[8],117 nM
same,IC (TGI),[8],58.3 nM
same,GI50,[9],33.5 nM
same,CC50,[9],116 nM
same,IC (TGI),[9],62.4 nM
same,GI50,[10],51.1 nM
same,CC50,[10],841 nM
same,IC (TGI),[10],123 nM
same,GI50,[11]; read-out: GI50 MEL-28,32.7 nM
same,CC50,[11]; read-out: LC50 MEL-28,111 nM
same,IC (TGI),[11]; read-out: TGI MEL-28,60.3 nM
same,GI50,[12]; read-out: GI50 A549,55.3 nM
same,CC50,[12]; read-out: LC50 A549,611 nM
same,IC (TGI),[12]; read-out: TGI A549,184 nM
same,GI50,[13],28.7 nM
same,CC50,[13],98.6 nM
same,IC (TGI),[13],53.2 nM
same,GI50,[14]; read-out: GI50 HT29,62 nM
same,CC50,[14]; read-out: LC50 HT29,1640 nM
same,IC (TGI),[14]; read-out: TGI HT29,165 nM
C=CCN1[C@@H]2c3c(cc(C)c(OC)c3O)C[C@H]1[C@H](C#N)N1C2[C@@H]2SC[C@]3(NCCc4cc(OC(=O)OC(C)(C)C)c(OC)cc43)C(=O)OC[C@H]1c1c3c(c(C)c(OC(=O)/C=C/c4ccccc4)c12)OCO3 (some centres unmarked) [compound 47],GI50,[1]; read-out: DU145 GI50,4120 nM
same,CC50,[1]; read-out: DU145 LC50,10200 nM
same,IC (TGI),[1]; read-out: DU145 TGI,10200 nM
same,GI50,[2],301 nM
same,CC50,[2],10200 nM
same,IC (TGI),[2],1370 nM
same,GI50,[3],10200 nM
same,CC50,[3],10200 nM
same,IC (TGI),[3],10200 nM
same,GI50,[4],3740 nM
same,CC50,[4],10200 nM
same,GI50,[5]; read-out: LNCAP GI50,449 nM
same,CC50,[5]; read-out: LNCAP LC50,10200 nM
same,IC (TGI),[5]; read-out: LNCAP TGI,2920 nM
same,GI50,[6],4920 nM
same,CC50,[6],10200 nM
same,IC (TGI),[6],10200 nM
same,GI50,[7],173 nM
same,CC50,[7],10200 nM
same,IC (TGI),[7],2320 nM
same,GI50,[8],4220 nM
same,CC50,[8],10200 nM
same,IC (TGI),[8],10200 nM
same,GI50,[9],4100 nM
same,CC50,[9],10200 nM
same,IC (TGI),[9],10200 nM
same,GI50,[10],10200 nM
same,CC50,[10],10200 nM
same,IC (TGI),[10],10200 nM
same,GI50,[11]; read-out: MEL-28 GI50,8700 nM
same,CC50,[11]; read-out: MEL-28 LC50,10200 nM
same,IC (TGI),[11]; read-out: MEL-28 TGI,10200 nM
same,GI50,[12]; read-out: A549 GI50,10200 nM
same,CC50,[12]; read-out: A549 LC50,10200 nM
same,IC (TGI),[12]; read-out: A549 TGI,10200 nM
same,GI50,[13],9160 nM
same,CC50,[13],10200 nM
same,IC (TGI),[13],10200 nM
same,GI50,[14]; read-out: HT29 GI50,10200 nM
same,CC50,[14]; read-out: HT29 LC50,10200 nM
same,IC (TGI),[14]; read-out: HT29 TGI,10200 nM
